One series deals with 2208L breast tumors. The experiment in a line: 2208L breast tumor mouse model.
The subject of series [1] is immune cells in tumor associated ascites (tumor microenvironment). The experiment in a line: Flow cytometry of immune cell populations in tumor associated ascites of VDID8 mice. The series is classed as in vivo, mouse. The following applies: for Percentage of M1 macrophages (MHCII+ CD206−) / total numbers of lymphocytes in ascites: week 5; for T cell, NK cell, and IFNγ+ lymphocyte populations: week 5 post tumor injection; for MHC II positive (MHCII Hi, M1-like) macrophages: compared to vehicle; for total numbers of lymphocytes in ascites: compared to vehicle / single agents. The protocol: Ascites tissue harvest and processing. When ascites fluid is collected from the mice, the cells obtained represent the tumor microenvironment and can be further analyzed to help illustrate the mixed population of cells surrounding the tumor. Ascites was collected, filtered, incubated in ACK buffer (Quality Biological) to lyse red blood cells, and washed. The mononuclear cells collected were then cultured for four hours in RPMI (Corning) with 10% FBS in the presence of phorbol 12-myristate 13-acetate (PMA) and ionomycin to stimulate cells, and brefeldin A and monensin (Invitrogen 00-4975-93) to cause aggregation of secreted proteins inside the cell.
Flow cytometry. Cells were washed and blocked with FcR Blocking Reagent (Miltenyi Biotec 130-092-575) and stained for cell-surface markers including Live/Dead (eBioscience 65-0865-14), CD45 (BD Biosciences 563891), CD3 (BD Biosciences 560527), CD4 (BD Biosciences 563331), CD8 (BD Biosciences 563152), NK1.1 (BD Biosciences 562921), F4/80 (BioLegend 123113), CD11b (BioLegend 101222), MHC II (isotype control 400627; BioLegend 107619), CD206 (BioLegend 141708), CD11c (BD Biosciences 564079), Ly6C (BD Biosciences 562728), Ly6G (BD Biosciences 563005), CD80 (BD Biosciences 553769), and CD86 (BD Biosciences 558703). Cells were permeabilized and stained for intracellular IFNγ (isotype control 554686; BD Biosciences 554413). Flow cytometry acquisition was performed on an LSR II cytometer (BD Biosciences), and data were analyzed using FlowJo software version 10.2.
Flow sorting. Lysed and processed bulk ascites cells were blocked with FcR Blocking Reagent (Miltenyi Biotec 130-092-575) and stained for cell-surface markers including Live/Dead (eBioscience 65-0865-14), CD45 (BD Biosciences 563891), F4/80 (BioLegend 123113), CD11b (BioLegend 101222), MHC II (isotype control 400627; BioLegend 107619), CD206 (BioLegend 141708), and CD11c (BD Biosciences 564079). Prepared cells were suspended in PBS and sorted immediately on a BSL-2 FACSAria II. M1 macrophages were sorted on a gate as follows: CD45+ L/D− F4\80+ CD11b+ MHC II+ CD206− CD11c−. M2 macrophages were sorted on a gate as follows: CD45+ L/D− F4\80+ CD11b+ MHC II− CD206+ CD11c−.
On the technique in general: Flow cytometry measures light scatter and fluorescence of single cells or particles in a stream.

A further series deals with bulk ascites cells. Put plainly: HPLC analysis of polyamine levels in bulk ascites cells from treated mice. The following applies: bulk ascites cells from treated animals. The class given is in vivo, mouse. The protocol: (§1) FIG. 6A-6B. DFMO treatment of VDID8 cells in vitro reduces putrescene and spermidine levels. FIG. 6A: VDID8 cells were cultured in 10% FBS RPMI+gentamicin for one week prior to beginning 10 day treatment. Cells were treated with 500 nM AZA/saline for 10 days and 5 mM DFMO/water for 3 days. AZA+DFMO cells were treated with 500 nM AZA for the first 7 days, and 500 nM AZA + 5 mM DFMO for the final 3 days of treatment. High-performance liquid chromatography (HPLC) analysis of polyamine levels in cultured, treated VDID8 cells are shown. n=3. FIG. 6B: Bulk ascites fluid was collected from individual mice treated with DFMO, AZA, or AZA+DFMO. Bulk ascites cells were lysed and washed and remaining cells were prepped for HPLC analysis of polyamine levels. n=4-10. All data were tested for a Gaussian distribution and found to be normal using Shapiro-Wilk test. Significance was determined using a one way ANOVA.
(§2) Polyamines. Polyamines were analyzed via high-performance liquid chromatography (HPLC) as previously described (36).

The conditions of series [2]: cited from earlier work.
For series [3], the system named is VEGF-β-Defensin ID8 (VDID8) syngeneic mouse ovarian surface epithelial (MOSE) cells. The experiment in a line: VDID8 syngeneic ovarian cancer mouse model: tumor burden (ascites volume) and survival. The following applies: for median survival / overall survival / tumor burden (ascites volume): VDID8 mice; for median survival / overall survival: AZA 0.5 mg/kg i.p., 2% DFMO in water; for tumor burden (ascites volume): treated vs vehicle; for tumor burden (ascites volume) compared with combination therapy: second ascites drain, week 5 post tumor injection.
Description: Mice were injected i.p. with 250,000 VEGF-DEFB ID8 MOSE cells (VDID8). 0.5 mg/kg of AZA was given i.p. 5 days a week, every other week. 2% DFMO was provided in water bottles. Mice were treated throughout the duration of the experiment. Upon 25-30% weight gain, ascites fluid was drained from mice and processed for analysis of the tumor microenvironment. FIG. 1B: Tumor burden, represented by ascites volume, 5 weeks post tumor injection. Data is from the second ascites drain procedure, the first was 4 weeks post tumor injection. Representative data (mean +/−SEM shown). n=10; four biological replicates. Data were tested for a Gaussian distribution using Shapiro-Wilk test and found not to be normal. Significance was determined using Kruskal Wallis test; statistical outliers removed using Peirce's criterion. FIG. 1C: Representative survival curve (median survival in days); n=10; four biological replicates. Significance determined using log-rank Mantel-Cox test.
Animals. Female C57BL/6NHsd wild-type (WT) mice (7-8 wk old) were purchased from Envigo International Holdings, Inc. (Indianapolis, Ind.). Mice were housed at the Johns Hopkins Kimmel Cancer Center Animal Resources Core and cared for in accordance with the policies of The Johns Hopkins University Animal Care and Use Committee and our approved animal protocol.
Syngeneic mouse model. 250,000 VEGF-β-Defensin ID8 (VDID8) syngeneic mouse ovarian surface epithelial (MOSE) cells were injected intraperitoneally into wild-type (WT) C57BL/6 mice.
Mice were treated with 0.5 mg/kg AZA/saline, Monday through Friday, every other week and continuous 2% DFMO in drinking water.
Mice were treated IP with AZA (0.5 mg/kg) or saline vehicle, DFMO (2% in water), or combination AZA and DFMO beginning three days post tumor injection (FIG. 1A).

The test system of a further series is VDID8 cells. Put plainly: HPLC analysis of polyamine levels in cultured, treated VDID8 cells. The class given is cell-based, mouse. The settings on record: in vitro; 500 nM AZA 10 days, 5 mM DFMO 3 days. On the procedure:
as §1, §2

Series [4] deals with LPS-stimulated macrophages. The following applies: LPS-stimulated macrophages in vitro (ref. 48); cited from earlier work.

Read-outs that look alike come from different tables or passages of the source.

Excerpt for 2208L breast tumors: Significance determined using log-rank Mantel-Cox test.
Tumor size as measured once weekly in mice bearing 2208L breast tumor xenografts (week 6 post tumor implant).
Mature or activated dendritic cells in the tumor microenvironment of the 2208L breast cancer model, shown as a percentage of dendritic cells.

Regarding `Nc1ncn([C@@H]2O[C@H](CO)[C@@H](O)[C@H]2O)c(=O)n1` [AZA, 4-amino-1-β-D-ribofuranozyl-s-triazin-2(1H)-one], the “mature or activated dendritic cells as a percentage of dendritic cells” value in the series with 2208L breast tumors (tumor microenvironment of 2208L model) was “increases activation”. Besides, the “tumor burden / tumor size” value with 2208L breast tumors (weeks 3 through 6 post tumor implant surgery) was “no impact on tumor size”. In series [1] (ascites), the “total macrophage populations in the tumor microenvironment” value is given as “consistently decreased”; the “Percentage of M1 macrophages (MHCII+ CD206−)” value is “increased”; the “T cell, NK cell, and IFNγ+ lymphocyte populations” value is listed as “significant increases”. For the same molecule, in series [1], the “MHC II positive (MHCII Hi, M1-like) macrophages” value is given as “increased” and the “total numbers of lymphocytes in ascites” value was “significantly increased”. Moreover, the “polyamine levels (putrescine, spermidine, spermine)” value in the series on bulk ascites cells was “No significant changes”. Moreover, the solubility result in series [2] (acetone, ethanol and methyl ketone) is reported as “insoluble”. Besides, the solubility result in series [2] (dimethylsulfoxide (DMSO)) was “soluble”. Moreover, in series [2] (ethanol/water (50/50), propylene glycol and polyethylene glycol), the solubility entry is recorded as “slightly soluble”. Besides, in series [2] (water, water-saturated octanol, 5% dextrose in water, N-methyl-2-pyrrolidone, normal saline and 5% Tween 80 in water), the solubility entry is given as “sparingly soluble”. For the same molecule, in series [3], the median survival entry is reported as “approximately 44 days”, the overall survival entry was “significantly increased survival”, the “tumor burden (ascites volume)” value is “decreased tumor burden” and the “tumor burden (ascites volume) compared with combination therapy” value was “higher tumor burden”. Also, the “putrescine and spermidine levels” value in the series on VDID8 cells was “stimulatory effect”.
Turning to `NCCCC(N)(C(=O)O)C(F)F` (centres unmarked) [DFMO, 2-(difluoromethyl)-2,5-diaminopentanoic acid], the tumor volume entry in the series on 2208L breast tumors (measured once weekly, week 6 post tumor implant) is reported as “maintains low tumor volumes”. For the same molecule, in series [1] (ascites), the “Percentage of M1 macrophages (MHCII+ CD206−)” value is listed as “increased”; the “T cell, NK cell, and IFNγ+ lymphocyte populations” value is given as “significant increases”. In series [1], the “MHC II positive (MHCII Hi, M1-like) macrophages” value was “increased” and the “total numbers of lymphocytes in ascites” value is reported as “significantly increased”. Besides, the “polyamine levels (putrescine, spermidine, spermine)” value in the series on bulk ascites cells is recorded as “decreased (although not significantly)”. Further, in series [4], the NO production entry is given as “potentiate NO production”. Moreover, in series [3], the median survival result is “approximately 44 days”, the overall survival result was “significantly increased survival”, the “tumor burden (ascites volume)” value is listed as “decreased tumor burden” and the “tumor burden (ascites volume) compared with combination therapy” value was “higher tumor burden”. Also, the “putrescine and spermidine levels” value in the series with VDID8 cells was “significant decrease”.

These data come from patent US20210260008A1, “COMBINATION THERAPY FOR TREATING CANCER” (THE JOHNS HOPKINS UNIVERSITY, priority 2018, published 2021).
